Structures are written as SMILES.

One test addresses Aurora-B (Homo sapiens, UniProt Q96GD4). Description: Aurora-B enzyme assay (identical protocol as Aurora-A). In kind it is biochemical. The conditions noted are these: IC50 range class; read-out: Inhibitor Activity vs Aurora-B. As to the method: The ability of compounds to inhibit Aurora-A activity was measured using a simple microplate assay for Aurora-A activity, also suitable for high-throughput screening. In brief, γ-^33P-ATP and Aurora-A were incubated in a myelin basic protein (MBP)-coated Flashplate® to generate a scintillation signal. The plates were formatted to contain the inhibitor, controls, positive control (staurosporin) and blanks. After incubation at 37° C. for 1 hour and a subsequent wash procedure, the plates were read on a TopCount-NXT™.
IC50 values were determined by non-linear regression analysis, after fitting the data point results to the equation for sigmoidal dose response with variable slope (% activity against log concentration of compound), using Graphpad Prism software.
The Aurora-B enzyme assay follows the identical protocol as Aurora-A.

A further test relates to HCT 116 cell line. The test can be described thus: Cell inhibition assay (SRB cell viability), HCT 116. In kind it is cell-based. The conditions noted are these: Homo sapiens, IC50 range class, 72 h, read-out: Inhibitor Activity vs HCT 116 cell line. On the procedure: (§1) The corresponding cancer cell lines (U937, HCT 116 and HUT) growing in log phase were harvested and seeded at 1000 cells/well (200 ul final volume) into 96-well tissue culture plates. Following 24 h of cell growth cells were treated with compounds (final concentration of 20 uM). Plates were then re-incubated for a further 72 h before a sulphorhodamine B (SRB) cell viability assay was conducted according to Skehan 1990 J Natl Canc Inst 82, 1107-1112.
(§2) Data were expressed as a percentage inhibition of the control, measured in the absence of inhibitor, as follows: — % inhibition=100−((S^i/S^o)×100) where S^i is the signal in the presence of inhibitor and S^o is the signal in the presence of DMSO.
(§3) IC50 values were determined by non-linear regression analysis, after fitting the results of eight data points to the equation for sigmoidal dose response with variable slope (% activity against log concentration of compound), using Graphpad Prism software.

In another test the test system is U937 cell line. Description: Cell inhibition assay (SRB cell viability), U937. The conditions noted are these: Homo sapiens, U-937, IC50 range class, 72 h, read-out: Inhibitor Activity vs U937 cell line. Type of test: cell-based. As to the method: as §1, §2, §3
The next test has as its system HUT cell line. The test can be described thus: Cell inhibition assay (SRB cell viability), HUT. Type of test: cell-based. The conditions noted are these: IC50 range class, 72 h, read-out: Inhibitor Activity vs HUT cell line. As to the method: as §1, §2, §3

Aurora-B, sequence (Q96GD4 whole entry): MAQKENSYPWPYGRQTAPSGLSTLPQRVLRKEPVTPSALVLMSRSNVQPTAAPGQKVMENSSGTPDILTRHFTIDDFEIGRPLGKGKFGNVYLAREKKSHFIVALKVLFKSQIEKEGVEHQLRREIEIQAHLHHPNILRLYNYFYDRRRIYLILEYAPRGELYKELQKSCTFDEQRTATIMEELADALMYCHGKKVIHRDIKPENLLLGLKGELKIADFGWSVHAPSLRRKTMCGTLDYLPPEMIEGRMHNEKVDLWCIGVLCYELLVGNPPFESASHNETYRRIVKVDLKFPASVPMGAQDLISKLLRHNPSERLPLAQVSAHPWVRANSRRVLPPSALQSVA

Take `COc1cc2c(Oc3ccc(NC(=O)c4ccc(OC(F)(F)F)cc4)cc3)ccnc2cc1OCC[C@H](N)C(=O)O` [Example 71, (S)-2-Amino-4-{6-methoxy-4-[4-(4-trifluoromethoxy-benzoylamino)-phenoxy]-quinolin-7-yloxy}-butyric acid]: the IC50 at Aurora-B was in the range of 2 to 5 µM.

Turning to `COc1cc2c(Oc3ccc(NC(=O)c4ccc(C(F)(F)F)cc4)cc3)ccnc2cc1OCC[C@H](N)C(=O)OC1CCCC1` [Example 53, (S)-2-Amino-4-{6-methoxy-4-[4-(4-trifluoromethyl-benzoylamino)-phenoxy]-quinolin-7-yloxy}-butyric acid cyclopentyl ester], the IC50 with HCT 116 cell line is under 1 µM; at Aurora-B, under 2 µM; in the test with U937 cell line it was under 1 µM; in the test on HUT cell line, under 1 µM.

In the case of `COc1cc2c(Oc3ccc(NC(=O)c4cccc(F)c4)cc3)ccnc2cc1OCC[C@H](N)C(=O)O` [Example 56, (S)-2-Amino-4-{4-[4-(3-fluoro-benzoylamino)-phenoxy]-6-methoxy-quinolin-7-yloxy}-butyric acid], on Aurora-B, the IC50 was under 2 µM.

Consider `COc1cc2c(Oc3ccc(NS(=O)(=O)c4ccccc4)cc3)ccnc2cc1OCC[C@H](N)C(=O)O` [Example 74, (S)-2-Amino-4-[4-(4-benzenesulfonylamino-phenoxy)-6-methoxy-quinolin-7-yloxy]-butyric acid], for which, on Aurora-B, the IC50 lay within 2 to 5 µM.

Consider `COc1ccc(C(=O)Nc2ccc(Oc3ccnc4cc(OCC[C@H](N)C(=O)OC5CCCC5)c(OC)cc34)cc2)cc1` [Example 57, (S)-2-Amino-4-{6-methoxy-4-[4-(4-methoxy-benzoylamino)-phenoxy]-quinolin-7-yloxy}-butyric acid cyclopentyl ester], for which the IC50 in the test on HCT 116 cell line is 1 to 5 µM; on Aurora-B it was 2 to 5 µM; in the test with U937 cell line it was under 1 µM; in the test on HUT cell line, 1 to 5 µM.

As for `COc1cc2c(Oc3ccc(NC(=O)c4ccccc4)cc3)ccnc2cc1OCC[C@H](NC1CCCCC1)C(=O)OC1CCCC1` [Example 39, (S)-4-[4-(4-Benzoylamino-phenoxy)-6-methoxy-quinolin-7-yloxy]-2-cyclohexylamino-butyric acid cyclopentyl ester], the IC50 in the test on HCT 116 cell line is over 5 µM; in the test on U937 cell line, 1 to 5 µM; in the test on HUT cell line, over 5 µM.

In the case of `COc1cc2c(Oc3ccc(NC(=O)Nc4ccc(C(F)(F)F)cc4)cc3)ccnc2cc1OCCC[C@H](N)C(=O)OC1CCCC1` [Example 113, (S)-2-Amino-5-(6-methoxy-4-{4-[3-(4-trifluoromethyl-phenyl)-ureido]-phenoxy}-quinolin-7-yloxy)-pentanoic acid cyclopentyl ester], the IC50 in the test on HCT 116 cell line, in the test with U937 cell line and in the test with HUT cell line was under 1 µM each time.

`COc1cc2c(Oc3ccc(NC(=O)c4ccccc4F)cc3)ccnc2cc1OCC[C@H](N)C(=O)OC1CCCC1` [Example 61, (S)-2-Amino-4-{4-[4-(2-fluoro-benzoylamino)-phenoxy]-6-methoxy-quinolin-7-yloxy}-butyric acid cyclopentyl ester]: the IC50 in the test with HCT 116 cell line, in the test with U937 cell line and in the test on HUT cell line was under 1 µM in each case.

Turning to `COc1cc2c(Oc3ccccc3)ccnc2cc1OCC[C@H](N)C(=O)OC1CCCC1` [Example 7, (S)-2-Amino-4-(6-methoxy-4-phenoxy-quinolin-7-yloxy)-butyric acid cyclopentyl ester], the IC50 was over 5 µM in the test on HCT 116 cell line, 1 to 5 µM with U937 cell line and 1 to 5 µM in the test with HUT cell line.

As for `COc1cc2c(Oc3ccc(CC(=O)Nc4ccccc4F)cc3)ccnc2cc1OCC[C@H](N)C(=O)OC1CCCC1` [Example 82, (S)-2-Amino-4-(4-{4-[(2-fluoro-phenylcarbamoyl)-methyl]-phenoxy}-6-methoxy-quinolin-7-yloxy)-butyric acid cyclopentyl ester], the IC50 in the test with HCT 116 cell line, with U937 cell line and in the test on HUT cell line was under 1 µM each time.

Consider `COc1cc2c(Oc3ccc(NC(=O)c4ccc(Cl)cc4)cc3)ccnc2cc1OCC[C@H](N)C(=O)OC1CCCC1` [Example 66, (S)-2-Amino-4-{4-[4-(4-chloro-benzoylamino)-phenoxy]-6-methoxy-quinolin-7-yloxy}-butyric acid cyclopentyl ester], for which the IC50 in the test with HCT 116 cell line, in the test with U937 cell line and in the test on HUT cell line was under 1 µM each time.

On to `COc1cc2c(Oc3ccc(CC(=O)Nc4ccc(F)cc4F)cc3)ccnc2cc1OCC[C@H](N)C(=O)OC1CCCC1` [Example 88, (S)-2-Amino-4-(4-{4-[(2,4-difluoro-phenylcarbamoyl)-methyl]-phenoxy}-6-methoxy-quinolin-7-yloxy)-butyric acid cyclopentyl ester], for which the IC50 in the test on HCT 116 cell line, with U937 cell line and in the test with HUT cell line was under 1 µM each time.

Regarding `COc1cc2c(Oc3ccc(CC(=O)Nc4ccccc4)cc3)ccnc2cc1OCC[C@H](N)C(=O)OC1CCCC1` [Example 80, (S)-2-Amino-4-[6-methoxy-4-(4-phenylcarbamoylmethyl-phenoxy)-quinolin-7-yloxy]-butyric acid cyclopentyl ester], the IC50 in the test with HCT 116 cell line, with U937 cell line and in the test with HUT cell line was under 1 µM in each case.

In the case of `COc1cc2c(Nc3cc(C)[nH]n3)nc(Sc3ccccc3)nc2cc1OCC[C@H](N)C(=O)OC1CCCC1` [Example 143, (S)-2-Amino-4-[6-methoxy-4-(5-methyl-1H-pyrazol-3-ylamino)-2-phenylsulfanyl-quinazolin-7-yloxy]-butyric acid cyclopentyl ester], the IC50 was over 5 µM in the test with HCT 116 cell line, 1 to 5 µM with U937 cell line and 1 to 5 µM in the test on HUT cell line.

As to `CCOC(=O)[C@@H](N)CCOc1cc2nccc(Oc3ccc(NC(=O)c4ccccc4)cc3)c2cc1OC` [Example 51, (S)-2-Amino-4-[4-(4-benzoylamino-phenoxy)-6-methoxy-quinolin-7-yloxy]-butyric acid Ethyl ester], the IC50 in the test with HCT 116 cell line, in the test with U937 cell line and with HUT cell line was under 1 µM in each case.

As to `COc1cc2c(Nc3cnn(CC(=O)Nc4ccccc4)c3)ccnc2cc1OCC[C@H](N)C(=O)O` [Example 23, (S)-2-Amino-4-[6-methoxy-4-(1-phenylcarbamoylmethyl-1H-pyrazol-4-ylamino)-quinolin-7-yloxy]-butyric acid], the IC50 at Aurora-B was over 5 µM.

For `COc1cc2c(Oc3ccc(NC(=O)c4ccccc4)cc3)ccnc2cc1OCC[C@H](NC(=O)c1cccs1)C(=O)OC1CCCC1` [Example 44, (S)-4-[4-(4-Benzoylamino-phenoxy)-6-methoxy-quinolin-7-yloxy]-2-[(thiophene-2-carbonyl)-amino]-butyric acid cyclopentyl ester], the IC50 in the test with HCT 116 cell line is over 5 µM; with U937 cell line, under 1 µM; in the test with HUT cell line it was 1 to 5 µM.

On to `COc1cc2c(Oc3ccc(-c4ccccc4)cc3)ccnc2cc1OCC[C@H](N)C(=O)OC1CCCC1` [Example 11, (S)-2-Amino-4-[4-(biphenyl-4-yloxy)-6-methoxy-quinolin-7-yloxy]-butyric acid cyclopentyl ester], for which the IC50 in the test on HCT 116 cell line, with U937 cell line and in the test with HUT cell line was 1 to 5 µM each time.

Turning to `COc1cc2c(Oc3ccc(NC(=O)c4ccccc4)cc3)ccnc2cc1OCC[C@H](N)C(=O)OC1CCCCC1` [Example 48, (S)-2-Amino-4-[4-(4-benzoylamino-phenoxy)-6-methoxyquinolin-7-yloxy]-butyric acid cyclohexyl ester], the IC50 in the test with HCT 116 cell line, in the test on U937 cell line and in the test on HUT cell line was under 1 µM throughout.

`COc1cc2c(Oc3ccc(CC(=O)Nc4cccc(F)c4)cc3)ccnc2cc1OCC[C@H](N)C(=O)OC1CCCC1` [Example 84, (S)-2-Amino-4-(4-{4-[(3-fluoro-phenylcarbamoyl)-methyl]-phenoxy}-6-methoxy-quinolin-7-yloxy)-butyric acid cyclopentyl ester]: the IC50 in the test on HCT 116 cell line, with U937 cell line and with HUT cell line was under 1 µM throughout.

For the compound `COc1cc2c(Oc3ccc(NC(=O)c4ccc(C(F)(F)F)cc4)cc3F)ccnc2cc1OCC[C@H](N)C(=O)OC1CCCC1` [Example 127, (S)-2-Amino-4-{4-[2-fluoro-4-(4-trifluoromethyl-benzoylamino)-phenoxy]-6-methoxy-quinolin-7-yloxy}-butyric acid cyclopentyl ester], the IC50 with HCT 116 cell line, in the test on U937 cell line and with HUT cell line was under 1 µM in each case.

On to `COc1ccc(NC(=O)Cc2ccc(Oc3ccnc4cc(OCC[C@H](N)C(=O)OC5CCCC5)c(OC)cc34)cc2)cc1` [Example 90, (S)-2-Amino-4-(6-methoxy-4-{4-[(4-methoxy-phenylcarbamoyl)-methyl]-phenoxy}-quinolin-7-yloxy)-butyric acid cyclopentyl ester], for which the IC50 with HCT 116 cell line, in the test on U937 cell line and with HUT cell line was under 1 µM each time.

These data come from US8148531B2 (Chroma Therapeutics Ltd., priority 2005, dated 2012).
